Measured values from ChEMBL document CHEMBL1145617, “Identification of acridinyl hydrazides as potent aspartic protease inhibitors” (Bioorg Med Chem Lett, 2008).

How the values were obtained:
Plasmepsin II = Plasmepsin II (Plasmodium falciparum, UniProt P46925); assay: Inhibition of Plasmodium falciparum plasmepsin-2 by FRET assay
Cathepsin D = Cathepsin D (Homo sapiens, UniProt P07339); assay: Inhibition of human cathepsin D by FRET assay
Cathepsin D, sequence (P07339 65-162 limits assumed): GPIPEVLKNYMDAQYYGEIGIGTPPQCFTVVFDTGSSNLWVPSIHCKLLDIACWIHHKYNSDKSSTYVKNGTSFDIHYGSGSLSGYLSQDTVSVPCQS
Cathepsin D, sequence (P07339 169-412 limits assumed): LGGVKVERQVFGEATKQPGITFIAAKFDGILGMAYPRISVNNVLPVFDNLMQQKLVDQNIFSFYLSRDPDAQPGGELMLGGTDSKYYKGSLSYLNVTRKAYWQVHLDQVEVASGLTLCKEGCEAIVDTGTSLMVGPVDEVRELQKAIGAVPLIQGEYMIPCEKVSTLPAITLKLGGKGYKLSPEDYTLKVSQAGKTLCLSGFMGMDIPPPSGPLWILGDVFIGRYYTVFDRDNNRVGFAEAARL

Plasmepsin II, sequence (P46925 whole entry): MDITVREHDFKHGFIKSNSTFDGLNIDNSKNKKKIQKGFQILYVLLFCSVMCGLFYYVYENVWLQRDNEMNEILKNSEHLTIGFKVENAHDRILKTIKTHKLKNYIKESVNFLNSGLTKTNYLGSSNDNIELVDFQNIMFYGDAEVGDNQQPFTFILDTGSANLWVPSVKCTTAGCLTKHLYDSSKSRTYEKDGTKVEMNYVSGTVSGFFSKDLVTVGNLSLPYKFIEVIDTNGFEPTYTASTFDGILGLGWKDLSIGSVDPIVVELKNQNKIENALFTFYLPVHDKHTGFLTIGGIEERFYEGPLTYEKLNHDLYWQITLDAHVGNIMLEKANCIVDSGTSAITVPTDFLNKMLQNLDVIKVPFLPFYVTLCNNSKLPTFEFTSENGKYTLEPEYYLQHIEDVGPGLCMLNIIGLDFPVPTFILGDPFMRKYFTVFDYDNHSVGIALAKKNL

| SMILES | IC50 (Plasmepsin II) [nM] | IC50 (Cathepsin D) [nM] |
| --- | --- | --- |
| CC(C)CC(=O)N[C@H](C(=O)N[C@H](C(=O)N[C@@H](CC(C)C)[C@@H](O)CC(=O)N[C@@H](C)C(=O)N[C@@H](CC(C)C)[C@@H](O)CC(=O)O)C(C)C)C(C)C [PEPSTATIN] | 0.68 |  |
| Cc1ccc2c(NNC(=O)c3ccccc3O)c3ccccc3nc2c1C | 0.13 | 0.5 |
| Cc1cccc(C(=O)NNc2c3ccccc3nc3c(C)c(C)ccc23)c1 | 4 | 9 |
